Data published in patent EP0133795B1 (THE McLEAN HOSPITAL CORPORATION, priority 1983, dated 1985).

How the values were obtained:
CAI pyramidal cells = format: cell-based, Sprague-Dawley rats
Protocol: Transverse slices of hippocampus (350-375 µm thick) were prepared from Sprague-Dawley rats (200-300 g) and transferred onto a nylon net fixed over a 1.5 ml superfusion chamber. The slices were maintained at 32-33°C in a humidified atmosphere of 95%/5% 02/C02. The standard medium consisted of (in mM): NaCl, 125; KCI, 3.5; CaC12,2; MgS04, 1.5; NaH2PO4, 1; NaHC03, 24; and glucose, 10. Low chloride medium was prepared by substituting sodium isethionate for sodium chloride.
Extracellular potentials were recorded with NaCI-fitted micropipettes, and stimulus pulses were applied through bipolar platinum wire electrodes. The various drugs were dissolved in fresh medium (without glucose and phosphate) and applied to the surface of the tissue by pressure ejection from a micropipette, Sakai, Swartz and Woody, (1979).
The inhibitory effectiveness of various compounds was investigated by measuring their ability to suppress the extracellular population spike recorded from the hippocampal CAI pyramidal layer and elicited by stimulation of stratum radiatum axons. The amplitude of this monosynaptic population spike is essentially proportional to the number of pyramidal cells discharging in response to a stimulus volley, Andersen, Bliss and Skrede, (1971).
The various compounds were applied as droplets to the pyramidal layer approximately 75 µm from the recording electrode. The volume of a single drug application was about 300 picoliters. […] The volume ejected from each pipette was calibrated prior to use by measuring the diameter of the ejected droplet and adjusting the duration of the pressure pulse (usually 100-500 msec) until a standard diameter was reached. A constant droplet volume was used throughout the experiments. Where dose-response information was required, several pipettes with different drug concentrations were used.

[1] = test system: bicuculline-induced epileptic seizures; assay: Delay of onset of bicuculline-induced seizures (anticonvulsant activity); format: in vivo, mouse; conditions: for Onset of seizures: % Saline Control / Survival Time: % Saline Control: 24 hr pretreatment
[2] = 1 hr after administration; TLC
general motor activity = assay: General motor activity of rats (dose-response, Fig. 1); format: in vivo; conditions: n = 6 per dose
Description: • Figures 1A and 1 B show the effects of cholesteryl-GABA on general motor activity.

[3] = n-Octanol/water partition coefficient; format: physicochemical; conditions: 5 ml n-octanol / 5 ml water, stirring 18 hours
Protocol: A Partition Coefficient was defined by the equation: [formula] representing the amount of the ester taken up per ml of n-octanol relative to the amount of the same compound taken up per ml of water.
The n-octanol/water partition coefficients were obtained from measurements of the distribution of 1, 3, 5 and 6 pmol quantities of each ^14C-labeled compound into a mixture of 5 ml of n-octanol and 5 ml water. At each concentration, the amount of labeled compound in the aqueous and n-octanol phases was calculated from the amount of radioactive material present after stirring for 18 hours.

[4] = Enzymatic hydrolysis of cholesteryl [14C]GABA ester by rat brain homogenate; format: in vitro ADME; conditions: 3 mg/ml, 37°C, S1 fractions of rat brain homogenates (0.8 mg/ml of protein)
Description: Cholesterol hydrolases and esterases are present in mammalian brain tissue.

[5] = 16 mg/kg, bicuculline 0.3 mg/kg
[6] = 30 mg/kg, bicuculline 0.3 mg/kg
[7] = 84 mg/kg, bicuculline 0.3 mg/kg, mean ± SEM, n ≥ 6

(3-Cholesteryl)-gamma-Aminobutyrate [Compound 6]
duration of the effect relative to a similar dose of GABA (CAI pyramidal cells): roughly an order of magnitude longer
effect after incubation of slices in PMSF (0.5 mM) for about 45 min (CAI pyramidal cells): significantly reduced
effect with picrotoxin (10 µM) in the medium or low chloride medium (CAI pyramidal cells): essentially eliminate the C-G effect
recovery of the population spike amplitude to 90% of the pre-droplet control value (CAI pyramidal cells; after an approximately half-maximal dose): about 14 min
inhibition of the evoked population spike (CAI pyramidal cells; droplets applied to the CAI pyramidal layer): dose-dependent inhibition
Onset of seizures: % Saline Control ([1]; 3 mg/kg, bicuculline 0.3 mg/kg): 120 ± 6 % Saline Control
Survival Time: % Saline Control ([1]; 3 mg/kg, bicuculline 0.3 mg/kg): 95 ± 15 % Saline Control
Onset of seizures: % Saline Control [1, 5]: 129 ± 4 % Saline Control
Survival Time: % Saline Control [1, 5]: 101 ± 20 % Saline Control
Onset of seizures: % Saline Control [1, 6]: 130 ± 8 % Saline Control
Survival Time: % Saline Control [1, 6]: 104 ± 18 % Saline Control
Onset of seizures: % Saline Control [1, 7]: 137 ± 7 % Saline Control
Survival Time: % Saline Control [1, 7]: 109 ± 9 % Saline Control
delay of onset of seizures ([1]; 24 hr after i.p. injection of 30 mg/kg, bicuculline 0.3 mg/kg): 30%
In Vivo Delay of Time of Onset of Bicuculline-induced seizures ([1]; graded 0-5): 5
labeled compound present as intact molecules in brain homogenates [2]: about 70%
i.p. injected dose at which motor activity was reduced by 50% (general motor activity): 8 µmol/kg
KOW: Octanol/Water Partition Coefficient [3]: 110.
Amount of Unreacted Substrate (6) ([4]; 10 min, 40 μl aliquots, TLC): 53.0 ± 7.0 nmol
Amount of Unreacted Substrate (6) ([4]; 30 min): 43.5 ± 6.3 nmol
Amount of Unreacted Substrate (6) ([4]; 60 min): 34.5 ± 4.9 nmol
